# Laboratory results from ChEMBL document CHEMBL3576794, “Decaprenylphosphoryl-β-d-ribose 2'-Epimerase 1 (DprE1): A Novel Therapeutic Target for the Treatment of Tuberculosis” (2015).
# System: Mycobacterium tuberculosis
# Assay: Antibacterial activity against Mycobacterium tuberculosis H37Rv ATCC 27294 after 5 days by microdilution method
# Assay type: functional
# Details: H37Rv ATCC 27294, 120 h
row,SMILES,MIC80 [µM]
1,COc1ncnc(Cn2cc(C(=O)NCCF)c3ncccc32)c1C,1.56
2,COc1ncnc(Cn2cc(C(=O)NCCF)c3ncc(Br)cc32)c1C,0.781
3,COc1cnc2c(C(=O)NCC(F)F)cn(Cc3ncnc(OC)c3C)c2c1,< 0.39
4,CC(c1c(F)cccc1F)n1cc(C(=O)NCCF)c2ncccc21 (stereo unspecified),12.5
5,COc1ncnc(Cn2cc(C(=O)NC[C@@H](C)O)c3ncc(C)cc32)c1C,6.52
6,COc1ncnc(Cn2cc(C(=O)NCCO)c3ncc(C)cc32)c1C [TBA-7371],1.56
